20 molecules from US20230295157A1, “3-(1H-IMIDAZOL-2-YL)-2,3,8,8A-TETRAHYDROINDOLIZIN-5(1H)-ONE DERIVATIVES USEFUL AS FACTOR XIA INHIBITORS” (JANSSEN PHARMACEUTICA NV, priority 2020, published 2023) can be followed below.

Molecules are shown by their SMILES. Where two headings read alike, the source gives them in different places.

The target of one test is Factor XIa (Homo sapiens (Human), UniProt P03951). Description: Factor XIa inhibition assay (FLINT) utilizing a fluorophore-quencher pair peptide substrate. It counts as biochemical. The note with it: 30 min preincubation, kinetic reads over 30 min, read-out: FXIa Kin Inh IC50. In a few lines:
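FXIa ([…]) preincubated 30 min with compound (11-point 3-fold dilution, top 100 nM, 2% DMSO), then 15 μM quenched FXI Arg146-based peptide added; Tris pH 7.5, CaCl2, BSA, CHAPS. Fluorescence 485/520 nm read kinetically every 5 min over 30 min at RT; IC50 by 4-parameter fit.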

Another test deals with human plasma kallikrein (Homo sapiens (Human), UniProt P03952). Description: Kallikrein inhibition assay (FLINT) utilizing a quenched AMC peptide substrate. It counts as biochemical. The conditions noted are these: 30 min preincubation, kinetic reads over 30 min, Z-Gly-Pro-Arg-AMC substrate 50 μM; read-out: Kallikrein Kin Inh IC50. In outline:
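Fluorogenic Z-Gly-Pro-Arg-AMC cleavage (50 μM substrate, 2 nM kallikrein, Tris pH 7.5, CaCl2, BSA, CHAPS, 2% DMSO) read kinetically at 340/440 nm for 30 min after 30-min compound pre-incubation. Compounds in 11-point 3-fold series from 1 μM; percent inhibition fitted to four-parameter equation for IC50.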

Setting [1] is: 5Fam-KLTRAETV-K5Tamra substrate 15 μM.

In general, IC50 refers to the concentration at which inhibition is half-maximal.

Chain of Factor XIa (P03951 388-625): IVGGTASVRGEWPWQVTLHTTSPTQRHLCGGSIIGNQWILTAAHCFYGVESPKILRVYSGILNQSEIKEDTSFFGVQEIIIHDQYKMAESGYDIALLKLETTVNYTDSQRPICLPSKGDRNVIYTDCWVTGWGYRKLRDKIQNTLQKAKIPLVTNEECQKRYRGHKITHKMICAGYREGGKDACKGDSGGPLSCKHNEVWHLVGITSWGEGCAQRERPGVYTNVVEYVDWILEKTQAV
Chain of Factor XIa (P03951 19-387 partner): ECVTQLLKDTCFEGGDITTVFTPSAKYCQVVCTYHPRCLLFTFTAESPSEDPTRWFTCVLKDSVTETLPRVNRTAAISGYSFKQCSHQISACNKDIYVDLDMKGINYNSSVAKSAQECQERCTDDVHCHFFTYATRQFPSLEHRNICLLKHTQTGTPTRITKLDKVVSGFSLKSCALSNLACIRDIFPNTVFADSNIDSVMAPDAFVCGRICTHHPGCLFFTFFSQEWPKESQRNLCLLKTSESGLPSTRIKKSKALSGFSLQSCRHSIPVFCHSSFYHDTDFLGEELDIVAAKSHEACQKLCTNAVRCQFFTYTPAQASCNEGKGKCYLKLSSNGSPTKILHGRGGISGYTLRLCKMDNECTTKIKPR
Chain of human plasma kallikrein (P03952 391-638): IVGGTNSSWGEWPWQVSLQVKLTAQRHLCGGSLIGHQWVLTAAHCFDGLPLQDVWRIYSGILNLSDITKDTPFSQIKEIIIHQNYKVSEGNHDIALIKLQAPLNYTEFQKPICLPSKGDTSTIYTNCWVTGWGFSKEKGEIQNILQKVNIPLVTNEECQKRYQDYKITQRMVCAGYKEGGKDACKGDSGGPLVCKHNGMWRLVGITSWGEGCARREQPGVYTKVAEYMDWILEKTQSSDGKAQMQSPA
Chain of human plasma kallikrein (P03952 20-390 partner): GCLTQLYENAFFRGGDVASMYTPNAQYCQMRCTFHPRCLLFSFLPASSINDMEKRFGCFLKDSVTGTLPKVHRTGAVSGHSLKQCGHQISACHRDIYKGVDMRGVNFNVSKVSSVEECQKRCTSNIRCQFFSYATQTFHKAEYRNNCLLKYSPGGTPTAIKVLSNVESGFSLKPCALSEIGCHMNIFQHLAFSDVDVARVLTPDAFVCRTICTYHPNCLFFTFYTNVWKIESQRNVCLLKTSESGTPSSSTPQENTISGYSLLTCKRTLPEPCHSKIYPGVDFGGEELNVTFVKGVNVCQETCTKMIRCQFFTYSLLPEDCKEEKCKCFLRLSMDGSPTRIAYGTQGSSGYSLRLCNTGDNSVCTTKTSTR

Take `O=C1CCc2cc(-c3cnc([C@@H]4CC[C@@H]5CC(c6cc(Cl)ccc6-n6cc(C(F)(F)F)nn6)=CC(=O)N54)[nH]3)ccc2N1` [Example 97, 6-(2-((3S,8aR)-7-(5-chloro-2-(4-(trifluoromethyl)-1H-1,2,3-triazol-1-yl)phenyl)-5-oxo-1,2,3,5,8,8a-hexahydroindolizin-3-yl)-1H-imidazol-5-yl)-3,4-dihydroquinolin-2(1H)-one]: the figures for the IC50 on Factor XIa (setting [1]) and on human plasma kallikrein were 1.6 nM and 4.6 nM, respectively.

As for `COC(=O)Nc1cc(-c2cnc([C@@H]3CC[C@@H]4CC(c5c(-n6cnnn6)ccc(Cl)c5F)=CC(=O)N43)[nH]2)ccn1` [Example 99, Methyl (4-(2-((3S,8aR)-7-(3-chloro-2-fluoro-6-(1H-tetrazol-1-yl)phenyl)-5-oxo-1,2,3,5,8,8a-hexahydroindolizin-3-yl)-1H-imidazol-5-yl)pyridin-2-yl)carbamate], the IC50 on Factor XIa (setting [1]) worked out at 2.3 nM; at human plasma kallikrein, 3.2 nM.

In the case of `O=C1C=C(c2cc(Cl)ccc2-n2cc(C(F)(F)F)nn2)C[C@H]2CC[C@@H](c3ncc(-c4ccc5[nH]c(=O)ccc5c4)[nH]3)N12` [Example 101, 6-(2-((3S,8aR)-7-(5-chloro-2-(4-(trifluoromethyl)-1H-1,2,3-triazol-1-yl)phenyl)-5-oxo-1,2,3,5,8,8a-hexahydroindolizin-3-yl)-1H-imidazol-5-yl)quinolin-2(1H)-one], the IC50 stood at 0.6 nM on Factor XIa (setting [1]) and 1.9 nM on human plasma kallikrein.

Regarding `CONC(=O)c1nccc(-c2cnc([C@@H]3CC[C@@H]4CC(c5c(-n6cnnn6)ccc(Cl)c5F)=CC(=O)N43)[nH]2)c1F` [Example 103, 4-[2-[(3S,8aR)-7-[3-Chloro-2-fluoro-6-(tetrazol-1-yl)phenyl]-5-oxo-2,3,8,8a-tetrahydro-1H-indolizin-3-yl]-1H-imidazol-5-yl]-3-fluoro-N-methoxy-pyridine-2-carboxamide], the IC50 on Factor XIa (setting [1]) worked out at 1.6 nM; at human plasma kallikrein, 53.1 nM.

With `O=C(NC12CC(C1)C2)c1nccc(-c2cnc([C@@H]3CC[C@@H]4CC(c5c(-n6cnnn6)ccc(Cl)c5F)=CC(=O)N43)[nH]2)c1F` [Example 104, N-(bicyclo[1.1.1]pentan-1-yl)-4-(2-((3S,8aR)-7-(3-chloro-2-fluoro-6-(1H-tetrazol-1-yl)phenyl)-5-oxo-1,2,3,5,8,8a-hexahydroindolizin-3-yl)-1H-imidazol-5-yl)-3-fluoropicolinamide], the IC50 is 16.6 nM on Factor XIa (setting [1]) and 35.4 nM at human plasma kallikrein.

For `O=C1CCCN1c1nccc(-c2cnc([C@@H]3CC[C@H]4CC(c5c(-n6cnnn6)ccc(Cl)c5F)=CC(=O)N43)[nH]2)c1F` [Example 105, (3S,8aS)-7-(3-chloro-2-fluoro-6-(1H-tetrazol-1-yl)phenyl)-3-(5-(3-fluoro-2-(2-oxopyrrolidin-1-yl)pyridin-4-yl)-1H-imidazol-2-yl)-2,3,8,8a-tetrahydroindolizin-5(1H)-one], the half-inhibitory concentration (IC50) at Factor XIa (setting [1]) turned out to be 62.9 nM; at human plasma kallikrein it was 125 nM.

With `O=C1CCCN1c1nccc(-c2cnc([C@@H]3CC[C@@H]4CC(c5c(-n6cnnn6)ccc(Cl)c5F)=CC(=O)N43)[nH]2)c1F` [Example 106, (3S,8aR)-7-(3-chloro-2-fluoro-6-(1H-tetrazol-1-yl)phenyl)-3-(5-(3-fluoro-2-(2-oxopyrrolidin-1-yl)pyridin-4-yl)-1H-imidazol-2-yl)-2,3,8,8a-tetrahydroindolizin-5(1H)-one], the IC50 at Factor XIa (setting [1]) came out at 11 nM; on human plasma kallikrein, 27 nM.

`O=C1C=C(c2c(-n3cnnn3)ccc(Cl)c2F)C[C@H]2CC[C@@H](c3nc(F)c(-c4ccnc(CO)c4F)[nH]3)N12` [Example 107, (3S,8aR)-7-[3-chloro-2-fluoro-6-(tetrazol-1-yl)phenyl]-3-[4-fluoro-5-[3-fluoro-2-(hydroxymethyl)-4-pyridyl]-1H-imidazol-2-yl]-2,3,8,8a-tetrahydro-1H-indolizin-5-one]: the results for the IC50 on Factor XIa (setting [1]) and on human plasma kallikrein were 0.7 nM and 6.5 nM, respectively.

For `[2H]c1nc([C@@H]2CC[C@@H]3CC(c4c(-n5cnnn5)ccc(Cl)c4F)=CC(=O)N32)[nH]c1-c1ccnc(C([2H])([2H])O)c1F` [Example 113, (3S,8aR)-7-[3-Chloro-2-fluoro-6-(tetrazol-1-yl)phenyl]-3-[4-deuterio-5-[2-[dideuterio(hydroxy)methyl]-3-fluoro-4-pyridyl]-1H-imidazol-2-yl]-2,3,8,8a-tetrahydro-1H-indolizin-5-one], the IC50 at Factor XIa (setting [1]) was 3.2 nM; on human plasma kallikrein, 27.3 nM.

On to `O=C1OCCN1c1nccc(-c2cnc([C@@H]3CC[C@@H]4CC(c5c(-n6cnnn6)ccc(Cl)c5F)=CC(=O)N43)[nH]2)c1F` [Example 114, 3-[4-[2-[(3S,8aR)-7-[3-chloro-2-fluoro-6-(tetrazol-1-yl)phenyl]-5-oxo-2,3,8,8a-tetrahydro-1H-indolizin-3-yl]-1H-imidazol-5-yl]-3-fluoro-2-pyridyl]oxazolidin-2-one], for which the IC50 stood at 9.4 nM on Factor XIa (setting [1]) and 55.9 nM at human plasma kallikrein.

On to `[2H]c1nc([C@@H]2CC[C@@H]3CC(c4c(-n5cnnn5)ccc(Cl)c4F)=CC(=O)N32)[nH]c1-c1ccnc(CO)c1F` [Example 117, (3S,8aR)-7-(3-chloro-2-fluoro-6-(1H-tetrazol-1-yl)phenyl)-3-(5-(3-fluoro-2-(hydroxymethyl)pyridin-4-yl)-1H-imidazol-2-yl-4-d)-2,3,8,8a-tetrahydroindolizin-5(1H)-one], for which the IC50 came to 2.9 nM at Factor XIa (setting [1]) and 24.8 nM at human plasma kallikrein.

With `Nc1ccc(-c2cnc([C@@H]3CC[C@@H]4CC(c5cc(Cl)ccc5-n5cnnn5)=CC(=O)N43)[nH]2)c(F)n1` [Example 123, (3S,8aR)-3-[5-(6-amino-2-fluoro-3-pyridyl)-1H-imidazol-2-yl]-7-[5-chloro-2-(tetrazol-1-yl)phenyl]-2,3,8,8a-tetrahydro-1H-indolizin-5-one], the IC50 worked out at 0.4 nM at Factor XIa (setting [1]) and 8.6 nM at human plasma kallikrein.

On to `[2H]c1cc(-c2cnc([C@@H]3CC[C@@H]4CC(c5cc(Cl)ccc5-n5cnnn5)=CC(=O)N43)[nH]2)c(F)nc1N` [Example 124, (3S,8aR)-3-[5-(6-amino-5-deuterio-2-fluoro-3-pyridyl)-1H-imidazol-2-yl]-7-[5-chloro-2-(tetrazol-1-yl)phenyl]-2,3,8,8a-tetrahydro-1H-indolizin-5-one], for which the IC50 worked out at 0.4 nM at Factor XIa (setting [1]) and 11.6 nM at human plasma kallikrein.

Regarding `[2H]c1cc(-c2c[nH]c([C@@H]3CC[C@@H]4CC(c5c(F)c(Cl)cc([2H])c5-n5cnnn5)=CC(=O)N43)n2)c(F)nc1N` [Example 125, (3S,8aR)-3-(4-(6-amino-2-fluoropyridin-3-yl-5-d)-1H-imidazol-2-yl)-7-(3-chloro-2-fluoro-6-(1H-tetrazol-1-yl)phenyl-5-d)-2,3,8,8a-tetrahydroindolizin-5(1H)-one], the IC50 was 0.5 nM at Factor XIa (setting [1]) and 9.6 nM on human plasma kallikrein.

Turning to `Nc1nccc(-c2cnc([C@@H]3CC[C@@H]4CC(c5c(-n6cnnn6)ccc(Cl)c5F)=CC(=O)N43)[nH]2)c1F` [Example 126, (3S,8aR)-3-[5-(2-amino-3-fluoro-4-pyridyl)-1H-imidazol-2-yl]-7-[3-chloro-2-fluoro-6-(tetrazol-1-yl)phenyl]-2,3,8,8a-tetrahydro-1H-indolizin-5-one], the IC50 stood at 0.5 nM at Factor XIa (setting [1]) and 4.6 nM on human plasma kallikrein.

As to `[2H]c1cc(Cl)c(F)c(C2=CC(=O)N3[C@H](CC[C@H]3c3nc([2H])c(-c4ccc(N)nc4F)[nH]3)C2)c1-n1cnnn1` [Example 129, (3S,8aR)-3-(5-(6-amino-2-fluoropyridin-3-yl)-1H-imidazol-2-yl-4-d)-7-(3-chloro-2-fluoro-6-(1H-tetrazol-1-yl)phenyl-5-d)-2,3,8,8a-tetrahydroindolizin-5(1H)-one], the IC50 worked out at 0.4 nM on Factor XIa (5Fam-[…]-K5Tamra substrate 15 μM) and 5.4 nM on human plasma kallikrein.

Take `O=C1C=C(c2c(-n3cnnn3)ccc(Cl)c2F)C[C@H]2CC[C@@H](c3ncc(-c4ccnc(C5COC5)c4F)[nH]3)N12` [Example 130, (3S,8aR)-7-(3-chloro-2-fluoro-6-(1H-tetrazol-1-yl)phenyl)-3-(5-(3-fluoro-2-(oxetan-3-yl)pyridin-4-yl)-1H-imidazol-2-yl)-2,3,8,8a-tetrahydroindolizin-5(1H)-one]: the values for the IC50 on Factor XIa (setting [1]) and at human plasma kallikrein were 3.5 nM and 12.7 nM, respectively.

Turning to `CNc1nccc(-c2cnc([C@@H]3CC[C@@H]4CC(c5c(-n6cnnn6)ccc(Cl)c5F)=CC(=O)N43)[nH]2)c1F` [Example 134, (3S,8aR)-7-(3-chloro-2-fluoro-6-(1H-tetrazol-1-yl)phenyl)-3-(5-(3-fluoro-2-(methylamino)pyridin-4-yl)-1H-imidazol-2-yl)-2,3,8,8a-tetrahydroindolizin-5(1H)-one], the IC50 at Factor XIa (setting [1]) stood at 0.4 nM; at human plasma kallikrein, 1.1 nM.

As for `[2H]c1cc(-c2[nH]c([C@@H]3CC[C@@H]4CC(c5c(-n6cnnn6)ccc(Cl)c5F)=CC(=O)N43)nc2[2H])c(F)nc1N` [Example 145, (3S,8aR)-3-[5-(6-amino-5-deuterio-2-fluoro-3-pyridyl)-4-deuterio-1H-imidazol-2-yl]-7-[3-chloro-2-fluoro-6-(tetrazol-1-yl)phenyl]-2,3,8,8a-tetrahydro-1H-indolizin-5-one], the IC50 on Factor XIa (setting [1]) was 0.6 nM; at human plasma kallikrein it was 7.7 nM.

Regarding `[2H][C@]12CC[C@@H](c3ncc(-c4ccc(N)nc4F)[nH]3)N1C(=O)C=C(c1c(-n3cnnn3)ccc(Cl)c1F)C2` [Example 146, (3S,8aR)-3-[5-(6-amino-2-fluoro-3-pyridyl)-1H-imidazol-2-yl]-7-[3-chloro-2-fluoro-6-(tetrazol-1-yl)phenyl]-8a-deuterio-1,2,3,8-tetrahydroindolizin-5-one], the values for the IC50 on Factor XIa (setting [1]) and at human plasma kallikrein were 0.5 nM and 7.3 nM, respectively.
